Data on 79 compounds can be found in the METLIN SMRT retention time set (Domingo-Almenara et al. 2019).

The nature of the data set: gradient 5% acetonitrile 3 min, to 50% in 2 min, to 85% in 15 min, held 3 min, 100 µL/min. Particulars: column: Zorbax Extend-C18 2.1 x 50 mm; eluents: water / acetonitrile, 0.1% formic acid. The essentials:
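Using water and acetonitrile that each contained 0.1% formic acid, mixtures of ~100 pure standards were separated at 100 μL/min on a Zorbax Extend-C18 column (2.1 × 50 mm, 1.8 μm). The HPLC fed a quadrupole time-of-flight mass spectrometer working in positive and negative ionization mode, with dead and dwell volumes of 40 μL and 900 μL. Data were acquired over 3 months. Retention time was read from computationally picked adduct peaks after manual inspection of each.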
`Cc1ccccc1NC(=O)C1CCCN(c2nc3ccccc3nc2C(F)(F)F)C1` (centres undefined) gave an RP-LC retention time of 1190 s.

With `Cc1nc2cc(-c3noc(-c4ccc(Br)cc4)n3)ccc2o1`, the RP-LC retention time was found to be 1230 s.

`O=C(CN1N=C(C(=O)Nc2ccc(F)cc2)CCC1=O)Nc1cc(F)ccc1F` yielded an RP-LC retention time of 831 s.

On to `Cc1ccc2c(c1)N(CC(=O)NC1CC1)C(=O)C(C)O2` (centres undefined), for which the RP-LC retention time amounted to 738 s.

In the case of `O=C(CN1CCN(Cc2ccccc2F)C1=O)NCc1cccc(Cl)c1`, the RP-LC retention time worked out at 831 s.

For the compound `Cn1cc(-c2nc(C(=O)Nc3cc(F)ccc3F)cs2)c2cccnc21`, the RP-LC retention time turned out to be 1150 s.

Regarding `O=C(Cn1nc(N2CCCC2)c2ccccc2c1=O)Nc1ccc(F)c(Cl)c1`, the RP-LC retention time was determined as 1000 s.

Turning to `O=C(Cc1cccs1)N1CCN(c2ccc(-c3noc(C4CC4)n3)cc2)CC1`, the RP-LC retention time was 934 s.

`O=C(Nc1cccc(F)c1)C1CCN(S(=O)(=O)c2cc(-c3noc(C4CC4)n3)cs2)CC1` showed an RP-LC retention time of 1040 s.

For `CCN(CC)c1nc(-c2ccc(C(C)(C)C)cc2)nc2ccccc12`, the RP-LC retention time was 943 s.

The compound `CC1=C(c2ccc(Cl)cc2)S(=O)(=O)N=C1N1CCCN(C(=O)C(C)(C)C)CC1` returned an RP-LC retention time of 900 s.

Turning to `O=C(Cn1nc2c3ccc(F)cc3ncn2c1=O)NCc1ccc(F)cc1`, the RP-LC retention time came to 668 s.

The compound `O=C(Nc1cc(F)ccc1Cl)c1ccc2c(c1)nnn2CCN1CCOCC1` gave an RP-LC retention time of 633 s.

`CCn1nccc1-c1cccc(-c2noc(C(NC(=O)c3ccco3)C(C)C)n2)c1` (centres undefined) returned an RP-LC retention time of 973 s.

For the compound `CCOc1ccc(S(=O)(=O)[C@H]2CS(=O)(=O)C[C@@H]2N2CCN(c3ccccn3)CC2)cc1`, the RP-LC retention time stood at 640 s.

For `CCOC(=O)c1noc2nc(C)nc(NCCCN3CCN(c4cc(Cl)ccc4C)CC3)c12`, the RP-LC retention time was 948 s.

The compound `Cc1ccc(C(=O)Nc2cnc(N3CCCCCC3)nc2)s1` registered an RP-LC retention time of 910 s.

As to `O=C(NC1CCCCCCC1)C1CCN(C(=O)c2ncn3c2COC(c2ccc(Cl)cc2)C3)CC1` (centres undefined), the RP-LC retention time was found to be 936 s.

Turning to `Cc1[nH]c(C)c(S(=O)(=O)N2CCC(C(=O)Nc3cccc(F)c3)CC2)c1C(=O)N1CCCC1`, the RP-LC retention time was 720 s.

`CCCNC(=O)C1CCN(c2ccc(SCC(=O)Nc3cccc(C(F)(F)F)c3)nn2)CC1` yielded an RP-LC retention time of 723 s.

`Cn1c(=O)c(N2CCN(C(=O)Cc3ccc(Br)cc3)CC2)nc2cccnc21` showed an RP-LC retention time of 938 s.

`CC(Oc1cccc(Cl)c1)C(=O)N1CCN(c2cc(-c3cccs3)[nH]n2)CC1` (centres undefined) returned an RP-LC retention time of 888 s.

Compound `Cc1cc(C)nc(N2CCN(c3ccc(Cl)cc3)CC2)n1` registered an RP-LC retention time of 1050 s.

`O=C(Nc1ccc(OCc2nnc(-c3ccccc3)o2)cc1)c1cnccn1` registered an RP-LC retention time of 832 s.

In turn, `Cc1cc2nn(CC(=O)Nc3ccc(C)c(C)c3)c(=O)n2c(N2CCCC2)n1` returned an RP-LC retention time of 1010 s.

`COc1ccc(N2C=C(C(=O)N3CCCC3)S(=O)(=O)c3ccccc32)cc1OC`: the RP-LC retention time was found to be 726 s.

On to `CCN(C(=O)c1nc(N2CCOCC2)c2cnn(C)c2n1)c1ccccc1`, for which the RP-LC retention time amounted to 693 s.

On to `Cc1ccc2c(c1)C(O)(CC(=O)c1cccc(Cl)c1)C(=O)N2` (centres undefined), for which the RP-LC retention time worked out at 785 s.

For `Cc1ccc(C(=O)NCCc2cn3ccsc3n2)cc1[N+](=O)[O-]`, the RP-LC retention time came out at 559 s.

`O=C(NCCSc1ncc(-c2ccc(F)cc2)[nH]1)c1cccs1` showed an RP-LC retention time of 584 s.

Compound `Cc1ccc(NS(=O)(=O)c2cn(C(C)C)c3ncccc23)cc1F` yielded an RP-LC retention time of 861 s.

For `Cc1cc(F)cc2c(=O)c3c([nH]c12)CCN(CC(=O)Nc1cccc(Cl)c1)C3`, the RP-LC retention time came out at 646 s.

In the case of `COc1ccccc1N1CCN(C(=O)c2cn(-c3ccc(NC(C)=O)cn3)cn2)CC1`, the RP-LC retention time was 646 s.

`COc1ccc(NC(=O)NC2CCN(c3ccc(C)c(C)c3)C2=O)cc1` (centres undefined) yielded an RP-LC retention time of 821 s.

As for `O=C(Nc1ccc(S(=O)(=O)N2CCCCC2c2cccnc2)cc1)c1ccccc1F` (centres undefined), the RP-LC retention time was 617 s.

Compound `O=C(Nc1ccccc1)c1cccn1Cc1noc(C2CC2)n1` returned an RP-LC retention time of 885 s.

In turn, `CN1C(=O)C(C)(C)c2cc(S(=O)(=O)N(C)CC(=O)N3CCN(c4ccccn4)CC3)ccc21` came in with an RP-LC retention time of 610 s.

The compound `CCNC(=O)N1CCOc2ccc(N(C)C)cc2C1` displayed an RP-LC retention time of 548 s.

Turning to `COc1ccc(-n2cc(C(=O)Nc3cnc4ccccc4c3)nn2)cc1`, the RP-LC retention time amounted to 821 s.

`Cc1noc(-c2ccnc(-n3cnc(C(=O)NCCc4ccc(Cl)cc4)c3)c2)n1` registered an RP-LC retention time of 683 s.

Compound `O=C(Cn1cccc1-c1nnc(C2CCC2)o1)NCc1ccc2c(c1)OCO2` gave an RP-LC retention time of 836 s.

In turn, `CC1(C(=O)NC2CCCC2)Cn2cnc(C(=O)NCc3cccc(Cl)c3)c2C(=O)N1C1CC1` (centres undefined) had an RP-LC retention time of 955 s.

On to `COc1ccc(CCNC(=O)C(=O)NCc2ccc(F)cc2)cc1OC`, for which the RP-LC retention time stood at 770 s.

As for `CCC(=O)N1CCN(Cc2nc3cc(NC(=O)CC(C)C)ccc3n2C)CC1`, the RP-LC retention time worked out at 603 s.

In turn, `Cn1cc(S(=O)(=O)Nc2ccc(F)c(F)c2)c2cccnc21` displayed an RP-LC retention time of 790 s.

Take `Cc1ccc(N2C(=O)C3N=NN(Cc4nc(-c5ccc(Br)cc5)no4)C3C2=O)cc1` (centres undefined): the RP-LC retention time was 1070 s.

Regarding `O=C(Nc1nc(-c2ccccc2)cs1)C1Cc2ccccc2CN1S(=O)(=O)c1cccs1` (centres undefined), the RP-LC retention time is 1160 s.

Compound `Cc1c(C)n(-c2ccccc2)c2ncn(CC(=O)NCc3ccco3)c(=O)c12` showed an RP-LC retention time of 809 s.

In turn, `O=C(NCc1ccc(OC(F)(F)F)cc1)C1c2c(F)cccc2C(=O)N1CCc1ccccn1` (centres undefined) had an RP-LC retention time of 787 s.

In the case of `CCn1ccc2sc(C)c(C(=O)NCc3ccc(SC)cc3)c2c1=O`, the RP-LC retention time was found to be 866 s.

On to `COCC(=O)N(CC(=O)N1CCc2sccc2C1COc1cccc(OC)c1)C1CC1` (centres undefined), for which the RP-LC retention time was found to be 800 s.

With `Cc1noc(C2(NC(=O)c3ccc[nH]c3=O)CCCCC2)n1`, the RP-LC retention time came to 621 s.

Turning to `Cc1nn(-c2ccccc2)c(C)c1S(=O)(=O)N1CCC(C(=O)NCCc2ccccc2)CC1`, the RP-LC retention time was determined as 812 s.

Compound `O=S(=O)(c1cccn2c(SCc3ccc(Cl)cc3)nnc12)N1CCCC1` returned an RP-LC retention time of 848 s.

In turn, `O=C(NCC(F)(F)F)c1ccc(N2CCCC2)nn1` gave an RP-LC retention time of 570 s.

Consider `CCCN(C)c1nccn2c(=O)n(CC(=O)Nc3ccc(Cl)cc3F)nc12`, for which the RP-LC retention time came to 735 s.

The compound `CCc1cccc(NS(=O)(=O)c2cc3n(c2)CCCN(CC)C3=O)c1` yielded an RP-LC retention time of 756 s.

`O=C(Cc1c(Sc2cccc(F)c2)[nH]c2ccccc12)N1CCN(c2ncccn2)CC1` had an RP-LC retention time of 975 s.

`O=C(NC1CCN(c2cc(-c3cccs3)[nH]n2)C1)c1cccc2[nH]ccc12` (centres undefined) registered an RP-LC retention time of 672 s.

For `Cc1nccn1-c1cc(C(C)C)c(C#N)c2nc3ccccc3n12`, the RP-LC retention time is 622 s.

Turning to `CCn1c(C(=O)NCCCN2CCCC2=O)c(N2CCCC2=O)c2cc(F)ccc21`, the RP-LC retention time was 700 s.

In turn, `Cc1ccc(F)c(NC(=O)C2CC(=O)N(c3ccc4oc(C)nc4c3)C2)c1` (centres undefined) came in with an RP-LC retention time of 753 s.

`Cc1cc2nn(CC(=O)Nc3cccc(C(C)C)c3)c(=O)n2c(-c2ccccc2)n1` came in with an RP-LC retention time of 955 s.

As for `CCc1nnc2ccc(S(=O)(=O)Nc3cccc(F)c3)cn12`, the RP-LC retention time is 714 s.

`O=C(NCCCN1CCOCC1)C1CCN(c2nc3cccnc3s2)CC1` returned an RP-LC retention time of 568 s.

`Cc1ccc(NC(=O)CN2C(=O)CCCc3cc(S(=O)(=O)N4CCCC4)ccc32)c(C)c1` displayed an RP-LC retention time of 852 s.

`CCn1c(CNC(=O)C2CCC2)nc2c1CN(C(=O)Cc1ccc(Cl)cc1)CC2`: the RP-LC retention time was 652 s.

`CC1=C(c2ccc(F)cc2)S(=O)(=O)N=C1N1CCC(NC(=O)NC(C)C)CC1` showed an RP-LC retention time of 861 s.

In turn, `O=C(Nc1nc(C(=O)N2CCc3ccccc32)co1)c1cccs1` gave an RP-LC retention time of 730 s.

For `Cn1nc(C(=O)N2CCCC2)c2c1CCN(C(=O)CCC(=O)NCCN1CCCCC1)C2`, the RP-LC retention time is 574 s.

`Cc1nnc2ccc(S(=O)(=O)N(Cc3cccc(F)c3)c3ccccc3)cn12`: the RP-LC retention time amounted to 866 s.

For the compound `CCCCn1c(=O)c2ccccc2n(Cc2nc(-c3ccc(OC(C)C)cc3)no2)c1=O`, the RP-LC retention time came to 1290 s.

In turn, `c1ccc(-c2nc3cc(-c4noc(C5CCOC5)n4)ccc3o2)cc1` (centres undefined) yielded an RP-LC retention time of 1100 s.

`O=C1CCN(C(=O)C2COc3ccccc3O2)CCOCCN1` (centres undefined): the RP-LC retention time was 634 s.

Compound `c1ccc(-c2ccc(CNCC3CCCO3)o2)cc1` (centres undefined) had an RP-LC retention time of 642 s.

In turn, `CCn1nccc1C(=O)N1CC(Oc2ccc(-c3nc(C)no3)cc2)C1` gave an RP-LC retention time of 800 s.

Turning to `Cc1cnc(-c2ccccc2)n1C1CN(Cc2ccc(F)cc2F)C1`, the RP-LC retention time was 572 s.

As for `O=C(O)c1nnn(-c2ccc(F)cc2)c1-c1cccnc1`, the RP-LC retention time amounted to 629 s.

The compound `O=C(NCc1csc(C2CCCN(C(=O)c3cc(F)cc(F)c3)C2)n1)C1CCC1` (centres undefined) showed an RP-LC retention time of 771 s.
